PMC5897276, “External radiation exposure, excretion, and effective half-life in ^177Lu-PSMA-targeted therapies” (EJNMMI Research, 2018)
Marks after values point to notes of the source that are not given here.

Key:
[1] = Whole-body activity measurement with external gamma probe and analysis of excreted activity; format: in vivo, patients; details: for Excreted activity Aex between given time point and previous time point, max / Excreted activity Aex between given time point and previous time point, mean / Excreted activity Aex between given time point and previous time point, min / Overall excreted activity as percentage of administered activity, max / Overall excreted activity as percentage of administered activity, mean / Overall excreted activity as percentage of administered activity, min: 25 patients (Department 2)
Description: The analysis of the excretion of unbound ^177Lu-PSMA ligands and lutetium-177 was performed indirectly by measuring the remaining activity within the body of the patients at different time points with an external gamma probe. This has been proven to be a fast, simple, and robust method to estimate the activity within the body of the patient. The difference compared with the expected activity that can be calculated directly by the physical decay of the administered activity is assumed to be equivalent to the excreted activity.
The measurements were carried out in Department 2, using a cohort of 25 patients (see Table 1). The whole-body activity was measured at 0 h (before voiding, reference) and approximately at 2, 4, 12, 24, 48, and 72 h after the administration of ^177Lu-PSMA-617.
The remaining activity AWB in the patient at the given time point ti was determined by the following equation:1 AWBti=CAti⋅CPti/CFP, where cA(ti) and cP(ti) are the count rates (compensated for the background) at the given time point for the anterior and posterior views respectively. CFP is a patient-specific calibration factor based on a baseline measurement of each patient, performed immediately after administration of ^177Lu-PSMA-617 and before the first voiding of the bladder. This factor is calculated according to the following equation:2 CFP=CA0⋅Cp0/AP, where AP is the administered activity. This factor represents the efficiency of the detector for the spatially distributed activity and intrinsically considers the self-attenuation of the γ photons by the body of the patient.
The excreted activity Aex at the time point ti was calculated as the difference of the whole-body activity at the previous time point ti − 1 (corrected for decay) and the whole-body activity at the time point ti. The whole extracted activity can then be calculated as a summation:3 Aex=∑j=1iAWBti−1e^−ln2/T1/2∙ti−ti−1−AWBti,
A 3″ × 3″-NaI (Tl) detector (Type 905-4) with multichannel analyzer and software (digiBASE, MAESTRO, Ortec, Oak Ridge, USA) was used as a measurement system. It was calibrated using americium-241, cobalt-57, cesium-137, and iodine-131 test sources, and regular quality checks were carried out. The shielded detector (collimator of 3 cm lead) was positioned 1 m above the floor, and the field of view covered the whole body of the patient. The energy window was set to 208 keV ± 27%, corresponding to approximately 3 × full width at half maximum of the energy resolution of the NaI (Tl) detector. The background was measured for 300 s without the presence of a patient. Patients were measured in anterior and posterior standing positions while holding arms close to the body at a distance of 2 m from the collimator surface. For all measurements, the acquisition time corrected for dead-time effects was set to 90 s. […] No further corrections (e.g., for pile-up or non-linearity) were applied. Statistical uncertainties of the count rate were below 1% for all measurements, as recommended by Hindorf et al.. Bi-exponential functions were fitted to the data, and the effective half-lives were calculated. The bi-exponential fit model was chosen after comparing the quality of fit of mono- and bi-exponential models using the Akaike criterion as described by Kletting et al..

[2] = Whole-body dose rate measurement at a distance of 2 m and calculation of effective half-life; format: in vivo, patients; details: for Calculated effective half-life T1/2eff, max / Calculated effective half-life T1/2eff, mean / Calculated effective half-life T1/2eff, min: mono-exponential fit of dose rate
Description: The measurements and analyses were carried out with 50 patients from both departments as characterized in Table 1. All patients of Department 2 were released from the hospital 72 h p. i. for organizational reasons. Therefore, dose rate measurements were also available for ti = 72 h p. i.
In both departments, the dose rate monitor LB 123 D-H10 (Berthold Technologies, Bad Wildbad, Germany) was used, which is suitable for dose rate levels between 0.05 μSv/h and 10 mSv/h within an energy range from 30 keV to 1.3 MeV. The systems were officially calibrated, and regular quality checks were carried out. The patients were measured in the standing position from the anterior (DRA) and posterior (DRP) view at a distance of 2 m from the surface of the detector. The dose rate DR for different time points (see Table 1) was then calculated as the geometric mean of both measurements5 DRti=DRAti∙DRPti.
The data were fitted by a mono-exponential curve, and the effective half-life was calculated for the different time points: 24, 48, and 72 h (only from the data of Department 2). […] For all comparisons, the time point 48 h was chosen as the reference, because it is standard that the patients are released from the therapy ward after 48 h. Subsequently, Eq. 4 was used to determine the dose D to the public after the discharge of the patient for different time points of release (24, 48, and 72 h p. i.), substituting T1/2eff by T1/2ind (individual half-life of each patient), T1/2phys (physical half-life of ^177Lu), and T1/2max (maximum of the calculated effective half-life of the patient cohort) for different calculations. In addition, a correlation analysis (Spearman and Pearson) of the dose rate and administered activity was performed.

[3] = time point 24.2 ± 0.7 h (from 2 h/4 h and 24 h)
[4] = time point 67.7 ± 2.3 h (72 h; from 24, 48 and 72 h), 25 patients (Department 2)

For `O=C([O-])CN1CCN(CC(=O)[O-])CCN(CC(=O)NCC2CCC(C(=O)N[C@@H](Cc3ccc4ccccc4c3)C(=O)NCCCC[C@H](NC(=O)N[C@@H](CCC(=O)O)C(=O)O)C(=O)O)CC2)CCN(CC(=O)[O-])CC1.[177Lu+3]` (some centres unmarked) [^177Lu-PSMA-617], the “Excreted activity Aex between given time point and previous time point, max” value ([1]; 2 h p. i.) was 2621 MBq, the “Excreted activity Aex between given time point and previous time point, mean” value ([1]; 2 h p. i.) was 1718 MBq and the “Excreted activity Aex between given time point and previous time point, min” value ([1]; 2 h p. i.) was 735 MBq. The “Overall excreted activity as percentage of administered activity, max” value (“Overall excreted activity as percentage … max” for short) ([1]; 2 h p. i.) was 42%, the “Overall excreted activity as percentage of administered activity, mean” value (shortened to “Overall excreted activity as percentage … mean”) ([1]; 2 h p. i.) was 30% and the “Overall excreted activity as percentage of administered activity, min” value ([1]; 2 h p. i.) was 13%. The “Excreted activity Aex between given time point and previous time point, max” value ([1]; 4 h p. i.) was 1526 MBq, the “Excreted activity Aex between given time point and previous time point, mean” value ([1]; 4 h p. i.) was 1265 MBq and the “Excreted activity Aex between given time point and previous time point, min” value ([1]; 4 h p. i.) was 1060 MBq. The “Overall excreted activity as percentage … max” value ([1]; 4 h p. i.) was 62%, the “Overall excreted activity as percentage of administered activity, min” value ([1]; 4 h p. i.) was 30% and the “Excreted activity Aex between given time point and previous time point, max” value ([1]; 12 h p. i.) was 1323 MBq. The “Excreted activity Aex between given time point and previous time point, mean” value ([1]; 12 h p. i.) was 1155 MBq, the “Excreted activity Aex between given time point and previous time point, min” value ([1]; 12 h p. i.) was 1009 MBq and the “Overall excreted activity as percentage … max” value ([1]; 12 h p. i.) was 82%. For the same compound, the “Overall excreted activity as percentage of administered activity, min” value ([1]; 12 h p. i.) was 48%, the “Excreted activity Aex between given time point and previous time point, max” value ([1]; 24 h p. i.) was 474 MBq and the “Excreted activity Aex between given time point and previous time point, mean” value ([1]; 24 h p. i.) was 395 MBq. The “Excreted activity Aex between given time point and previous time point, min” value ([1]; 24 h p. i.) was 318 MBq, the “Overall excreted activity as percentage … max” value ([1]; 24 h p. i.) was 87% and the “Overall excreted activity as percentage … mean” value ([1]; 24 h p. i.) was 76%. For the same compound, the “Overall excreted activity as percentage of administered activity, min” value ([1]; 24 h p. i.) was 53%, the “Excreted activity Aex between given time point and previous time point, max” value ([1]; 48 h p. i.) was 265 MBq and the “Excreted activity Aex between given time point and previous time point, mean” value ([1]; 48 h p. i.) was 219 MBq. The “Excreted activity Aex between given time point and previous time point, min” value ([1]; 48 h p. i.) was 160 MBq, the “Overall excreted activity as percentage … max” value ([1]; 48 h p. i.) was 89% and the “Overall excreted activity as percentage … mean” value ([1]; 48 h p. i.) was 77%. For the same compound, the “Overall excreted activity as percentage of administered activity, min” value ([1]; 48 h p. i.) was 50%, the “Excreted activity Aex between given time point and previous time point, max” value ([1]; 72 h p. i.) was 82 MBq and the “Excreted activity Aex between given time point and previous time point, mean” value ([1]; 72 h p. i.) was 68 MBq. For the same compound, the “Excreted activity Aex between given time point and previous time point, min” value ([1]; 72 h p. i.) was 50 MBq, the “Overall excreted activity as percentage … max” value ([1]; 72 h p. i.) was 89% and the “Overall excreted activity as percentage … mean” value ([1]; 72 h p. i.) was 78%. The “Overall excreted activity as percentage of administered activity, min” value ([1]; 72 h p. i.) was 54%, the “Clearance of the unbound compound from the body” value ([1]; in words) was “rapidly cleared from the body” and the “Excreted activity over a period of 72 h (per therapy cycle and patient), average” value ([1]; of the administered 6.6 GBq, patient cohort 2) was “approximately 4.8 GBq”. For the same compound, the “Calculated effective half-life T1/2eff, max” value [2, 3] was 73.5 h, the “Calculated effective half-life T1/2eff, mean” value [2, 3] was 26.0 h and the “Calculated effective half-life T1/2eff, min” value [2, 3] was 11.0 h. For the same compound, the “Calculated effective half-life T1/2eff, min” value ([2]; time point 45.7 ± 2.1 h (48 h; from 24 h and 48 h)) was 21.7 h, the “Calculated effective half-life T1/2eff, max” value [2, 4] was 74.5^a h and the “Calculated effective half-life T1/2eff, mean” value [2, 4] was 38.4^a h. The “Calculated effective half-life T1/2eff, min” value [2, 4] was 25.7^a h and the “Dose rate (measured at a distance of 2 m), max” value ([2]; time point 2 ± 0.3 h p. i.) was 5.0 μSv/h.
